In the supplement of paper PMC11061612:

How the values were obtained:
SG3199 = compound: CC1=CN2[C@@H](C1)C=NC3=CC(=C(C=C3C2=O)OC)OCCCCCOC4=C(C=C5C(=C4)N=C[C@@H]6CC(=CN6C5=O)C)OC [SG3199]; conditions: max 0.001 µM
Summary of the method: (§1)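 Cancer cell lines in 1536-well plates (7.5 μl DMEM/F12 or RPMI, 10% FBS) were held 24 hours at 37°C and 5% CO2 and then dosed for 72 hours at a final DMSO of typically 0.2%. Viability was taken from CellTiter-Glo 2.0 luminescence, scaled between blank-well and DMSO-well means. Curves were fitted as two-parameter logistic models with a non-linear mixed effects model, from which the single-agent IC50 was taken.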

AZD1390 = compound: CC(C)n1c(=O)n(C)c2cnc3cc(F)c(-c4ccc(OCCCN5CCCCC5)nc4)cc3c21 [AZD1390]; conditions: max 0.3 µM
Summary of the method: as §1

Doxorubicin = compound: COc1cccc2c1C(=O)c1c(O)c3c(c(O)c1C2=O)C[C@@](O)(C(=O)CO)C[C@@H]3O[C@H]1C[C@H](N)[C@H](O)[C@H](C)O1 [Doxorubicin]; conditions: max 1 µM
Summary of the method: as §1

AZD7648 = compound: Cc1cc2ncnn2cc1Nc1ncc2c(n1)n(C1CCOCC1)c(=O)n2C [AZD7648]; conditions: max 10 µM
Summary of the method: as §1

Dasatinib = compound: CC1=C(C(=CC=C1)Cl)NC(=O)C2=CN=C(S2)NC3=CC(=NC(=N3)C)N4CCN(CC4)CCO [Dasatinib]; conditions: max 2 µM
Summary of the method: as §1

Olaparib = compound: O=C(c1cc(Cc2n[nH]c(=O)c3ccccc23)ccc1F)N1CCN(C(=O)C2CC2)CC1 [Olaparib]; conditions: max 10 µM
Summary of the method: as §1

AZD5991 = compound: Cc1c2c(nn1C)CSCc1cc(n(C)n1)CSc1cc(c3ccccc3c1)OCCCc1c(C(=O)O)n(C)c3c-2c(Cl)ccc13 [AZD5991]; conditions: max 1 µM
Summary of the method: as §1

AZD0156 = compound: CN(C)CCCOc1ccc(-c2ccc3ncc4c(c3c2)n(C2CCOCC2)c(=O)n4C)cn1 [AZD0156]
Summary of the method: as §1

AZD1775 = compound: C=CCn1c(=O)c2cnc(Nc3ccc(N4CCN(C)CC4)cc3)nc2n1-c1cccc(C(C)(C)O)n1 [AZD1775]
Summary of the method: as §1

Alisertib = compound: COc1cc(Nc2ncc3c(n2)-c2ccc(Cl)cc2C(c2c(F)cccc2OC)=NC3)ccc1C(=O)O [Alisertib]; conditions: max 10 µM
Summary of the method: as §1

Gefitinib = compound: COc1cc2ncnc(Nc3ccc(F)c(Cl)c3)c2cc1OCCCN1CCOCC1 [Gefitinib]; conditions: max 10 µM
Summary of the method: as §1

Crizotinib = compound: C[C@@H](Oc1cc(-c2cnn(C3CCNCC3)c2)cnc1N)c1c(Cl)ccc(F)c1Cl [Crizotinib]; conditions: max 10 µM
Summary of the method: as §1

SN-38 = compound: CCc1c2c(nc3ccc(O)cc13)-c1cc3c(c(=O)n1C2)COC(=O)[C@]3(O)CC [SN-38]; conditions: max 0.3 µM
Summary of the method: as §1

AZD6738 = compound: C[C@@H]1COCCN1C2=NC(=NC(=C2)C3(CC3)[S@](=N)(=O)C)C4=C5C=CNC5=NC=C4 [AZD6738]; conditions: max 10 µM
Summary of the method: as §1

Lapatinib = compound: CS(=O)(=O)CCNCc1ccc(-c2ccc3ncnc(Nc4ccc(OCc5cccc(F)c5)c(Cl)c4)c3c2)o1 [Lapatinib]; conditions: max 10 µM
Summary of the method: as §1

Selumetinib = compound: Cn1cnc2c(F)c(Nc3ccc(Br)cc3Cl)c(C(=O)NOCCO)cc21 [Selumetinib]
Summary of the method: as §1

Prexasertib = compound: COc1cccc(OCCCN)c1-c1cc(Nc2cnc(C#N)cn2)n[nH]1 [Prexasertib]; conditions: max 1 µM
Summary of the method: as §1

AZD4320 = compound: CN(CC[C@H](CSC1=CC=CC=C1)NC2=C(C=C(C=C2)S(=O)(=O)NC(=O)C3=CC=C(C=C3)N4CCC(CC4)[C@H](C5=CC=CC=C5C6=CC=C(C=C6)Cl)O)S(=O)(=O)C(F)(F)F)CCO [AZD4320]; conditions: max 1 µM
Summary of the method: as §1

Savolitinib = compound: C[C@@H](c1ccc2nccn2c1)n1nnc2ncc(-c3cnn(C)c3)nc21 [Savolitinib]; conditions: max 1 µM
Summary of the method: as §1

AZD2811 = compound: CCN(CCO)CCCOc1ccc2c(Nc3cc(CC(=O)Nc4cccc(F)c4)[nH]n3)ncnc2c1 [AZD2811]; conditions: max 1 µM
Summary of the method: as §1

Capivasertib = compound: C1CN(CCC1(C(=O)N[C@@H](CCO)C2=CC=C(C=C2)Cl)N)C3=NC=NC4=C3C=CN4 [Capivasertib]
Summary of the method: as §1

Venetoclax = compound: CC1(C)CCC(CN2CCN(c3ccc(C(=O)NS(=O)(=O)c4ccc(NCC5CCOCC5)c([N+](=O)[O-])c4)c(Oc4cnc5[nH]ccc5c4)c3)CC2)=C(c2ccc(Cl)cc2)C1 [Venetoclax]; conditions: max 1 µM
Summary of the method: as §1

Palbociclib = compound: CC(=O)c1c(C)c2cnc(Nc3ccc(N4CCNCC4)cn3)nc2n(C2CCCC2)c1=O [Palbociclib]; conditions: max 10 µM
Summary of the method: as §1

Taselisib = compound: Cc1nc(-c2cn3c(n2)-c2ccc(-c4cnn(C(C)(C)C(N)=O)c4)cc2OCC3)n(C(C)C)n1 [Taselisib]; conditions: max 10 µM
Summary of the method: as §1

Trametinib = compound: CC(=O)Nc1cccc(-n2c(=O)n(C3CC3)c(=O)c3c(Nc4ccc(I)cc4F)n(C)c(=O)c(C)c32)c1 [Trametinib]; conditions: max 1 µM
Summary of the method: as §1

AZD5153 = compound: COc1nnc2ccc(N3CCC(c4ccc(OCCN5CCN(C)C(=O)[C@H]5C)cc4)CC3)nn12 [AZD5153]; conditions: max 1 µM
Summary of the method: as §1

AZD8186 = compound: C[C@@H](Nc1cc(F)cc(F)c1)c1cc(C(=O)N(C)C)cc2c(=O)cc(N3CCOCC3)oc12 [AZD8186]; conditions: max 3 µM
Summary of the method: as §1

Cell Line	IC50, cell viability 72 h (SG3199) [nM]	IC50, cell viability 72 h (AZD1390) [nM]	IC50, cell viability 72 h (Doxorubicin) [nM]	IC50, cell viability 72 h (AZD7648) [nM]	IC50, cell viability 72 h (Dasatinib) [nM]	IC50, cell viability 72 h (Olaparib) [nM]	IC50, cell viability 72 h (AZD5991) [nM]	IC50, cell viability 72 h (AZD0156; max 3 µM) [nM]	IC50, cell viability 72 h (AZD1775; max 3 µM) [nM]	IC50, cell viability 72 h (Alisertib) [nM]	IC50, cell viability 72 h (Gefitinib) [nM]	IC50, cell viability 72 h (Crizotinib) [nM]	IC50, cell viability 72 h (SN-38) [nM]	IC50, cell viability 72 h (AZD6738) [nM]	IC50, cell viability 72 h (Lapatinib) [nM]	IC50, cell viability 72 h (Selumetinib; max 10 µM) [nM]	IC50, cell viability 72 h (Prexasertib) [nM]	IC50, cell viability 72 h (AZD4320) [nM]	IC50, cell viability 72 h (Savolitinib) [nM]	IC50, cell viability 72 h (AZD2811) [nM]	IC50, cell viability 72 h (Capivasertib; max 10 µM) [nM]	IC50, cell viability 72 h (Venetoclax) [nM]	IC50, cell viability 72 h (Palbociclib) [nM]	IC50, cell viability 72 h (Taselisib) [nM]	IC50, cell viability 72 h (Trametinib) [nM]	IC50, cell viability 72 h (AZD5153) [nM]	IC50, cell viability 72 h (AZD8186) [nM]	IC50, cell viability 72 h (AZD0156; max 1 µM) [nM]	IC50, cell viability 72 h (AZD1775; max 1 µM) [nM]	IC50, cell viability 72 h (Selumetinib; max 3 µM) [nM]	IC50, cell viability 72 h (Capivasertib; max 3 µM) [nM]
786-0 (Kidney Carcinoma)	> 1	> 300	571	> 10000	396	> 10000	> 1000	> 3000	392	> 10000	> 10000	> 10000	23	5550	6480	> 10000	28.8	> 1000	> 1000	> 1000	4540	> 1000	> 10000	> 10000	> 1000	523	> 3000	–	–	–	–
AN3-CA (Endometrial Carcinoma)	> 1	> 300	> 1000	> 10000	> 2000	> 10000	> 1000	> 3000	1290	1370	> 10000	> 10000	> 300	> 10000	> 10000	> 10000	66.5	> 1000	> 1000	> 1000	1650	> 1000	> 10000	615	> 1000	> 1000	> 3000	–	–	–	–
AsPC-1 (Pancreatic Carcinoma)	> 1	> 300	> 1000	> 10000	> 2000	> 10000	> 1000	> 3000	> 3000	> 10000	> 10000	> 10000	> 300	> 10000	> 10000	> 10000	> 1000	> 1000	> 1000	> 1000	> 10000	> 1000	> 10000	> 10000	866	> 1000	> 3000	–	–	–	–
BALL-1 (B-Lymphoblastic Leukemia)	> 1	> 300	123	> 10000	> 2000	6290	> 1000	> 3000	131	84.9	> 10000	5240	1.57	487	> 10000	> 10000	5.12	5.84	> 1000	865	7830	4.7	1150	> 10000	> 1000	59	> 3000	–	–	–	–
Calu-6 (Non-Small Cell Lung Carcinoma)	> 1	> 300	> 1000	> 10000	> 2000	> 10000	> 1000	> 3000	784	5690	> 10000	> 10000	93.4	4100	> 10000	6080	48.1	> 1000	> 1000	> 1000	> 10000	> 1000	> 10000	> 10000	72.4	> 1000	> 3000	–	–	–	–
Caov-3 (Ovarian Carcinoma)	> 1	–	316	> 10000	–	> 10000	> 1000	–	–	30.5	–	–	5.51	2740	–	–	35.5	> 1000	–	48.7	–	> 1000	–	5610	> 1000	–	> 3000	> 1000	453	> 3000	> 3000
HSC-3 (Oral Cavity Carcinoma)	> 1	> 300	> 1000	> 10000	877	> 10000	> 1000	> 3000	1730	3390	6900	5820	18.5	> 10000	2310	> 10000	213	> 1000	> 1000	> 1000	4550	> 1000	> 10000	2260	216	123	> 3000	–	–	–	–
HTC-C3 (Thyroid Gland Carcinoma)	> 1	> 300	> 1000	> 10000	128	> 10000	> 1000	> 3000	2300	> 10000	> 10000	> 10000	> 300	3090	> 10000	941	128	> 1000	> 1000	> 1000	> 10000	> 1000	> 10000	> 10000	31.8	130	> 3000	–	–	–	–
